Laboratory results taken from article PMC6328587 (Nature Communications, 2019).

Experiments:
endogenous p38δ = target: T1, endogenous p38δ (Homo sapiens, UniProt O15264+P40337); experiment: Ternary complex pull-down from MDA-MB-231 whole-cell lysate; format: binding
T1 construct: endogenous in cells; host or cells: MDA-MB-231 whole-cell lysate (p38δ); GST-VBC bait made in E. coli
Description: Glutathione Sepharose 4B (Glutathione-conjugated beads in a slurry containing 20% ethanol) were washed twice with 1X wash buffer (50 mM HEPES pH 7.5, 150 mM NaCl, 1 mM DTT, 0.01% NP40, 5 mM MgCl2, 10% Glycerol) and then blocked for 1 h at room temperature with 10% bovine serum albumin (BSA) in wash buffer. The beads were then washed again three times with wash buffer and then purified GST-VBC (stable form of VHL complexed with EloB/EloC, described above) was immobilized for 1 h at 4 °C at 3.6 pmole µL^–1 of beads. The beads were then washed three times with wash buffer, resuspended, divided into two equal volumes, and p38α or p38δ protein was added. The bead:p38 mixture was then aliquoted to separate tubes and PROTAC was added at the indicated concentration (PROTACs were intermediately diluted in 10% DMSO and 0.25% CHAPS). This mixture was incubated at 4 °C for 2 h. The beads were washed three times with 10 column volumes of wash buffer and then eluted with SDS loading buffer at 75 °C for 10 min.
For experiments in which the input substrate is a WCL (Fig. 4b), the sample was prepared as follows. Five 150 mm dishes of confluent MDA-MB-231 cells were washed with 1X PBS, pH 7.4, and then dissociated using enzyme-free PBS-based cell dissociation buffer (ThermoFisher Scientific) for 10 min at 37 °C. […]

FLAG-p38δ = target: T2, FLAG-p38δ (Homo sapiens, UniProt O15264); experiment: Ubiquitination assay, FLAG-p38δ and HA-Ub in HeLa cells; format: cell-based; conditions: 1 µM PROTAC, 2 h
T2 construct: expressed in transfected cells; host or cells: HeLa
T2 sequence (O15264 1-365): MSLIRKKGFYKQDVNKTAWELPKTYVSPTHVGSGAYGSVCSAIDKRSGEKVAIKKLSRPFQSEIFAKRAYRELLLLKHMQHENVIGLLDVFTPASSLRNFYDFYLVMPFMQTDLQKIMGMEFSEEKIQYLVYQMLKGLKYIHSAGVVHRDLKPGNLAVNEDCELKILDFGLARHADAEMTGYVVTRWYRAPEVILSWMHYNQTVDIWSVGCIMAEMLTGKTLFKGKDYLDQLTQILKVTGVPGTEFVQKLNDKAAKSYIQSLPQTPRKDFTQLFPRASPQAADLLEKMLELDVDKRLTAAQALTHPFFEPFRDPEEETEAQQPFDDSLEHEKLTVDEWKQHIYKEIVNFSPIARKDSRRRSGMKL
Description: HeLa cells (2 × 10^6) were seeded into 10 cm dishes and allowed to adhere overnight. On the following day, cells were transfected with 3 µg pcDNA5-FLAG-p38α or pcDNA5-FLAG-p38δ and 1 µg pRK5-HA-Ubiquitin-WT (Addgene plasmid #17608) in Opti-MEM media using Lipofectamine 2000 (Invitrogen). After 6 h, Opti-MEM media were replaced with DMEM (1 × ) and cells were grown for an additional 24 h. After this time, cells were treated with indicated concentrations of either vehicle (DMSO) or PROTAC for the indicated amount of time at 37 °C. Cells were then placed on ice, rinsed twice with ice-cold 1X PBS and lysed in 500 µL modified 1X RIPA buffer (25 mM Tris-HCl pH 7.6, 150 mM NaCl, 1% NP-40, 1% sodium deoxycholate, 0.1% SDS) containing 5 mM 1,10-phenanthroline monohydrate, 10 mM N-ethylmaleimide, 20 µM PR-619, and 1X protease inhibitor cocktail (Roche). Lysates were spun down at 14,000 × g at 4 °C for 20 min and protein content was measured by Pierce BCA Protein Assay (ThermoFisher Scientific). […] Immunoprecipitated protein was eluted off of the beads by heating at 95 °C for 5 min and the supernatant was run on an SDS-PAGE gel and evaluated for the presence of immunoprecipitated FLAG-tagged proteins (anti-FLAG M2, Sigma #F1804), as well as ubiquitinated FLAG-tagged proteins (anti-HA-tag (6E2), CST #2367). […]

T1 sequence (P40337 whole entry, one chain of several): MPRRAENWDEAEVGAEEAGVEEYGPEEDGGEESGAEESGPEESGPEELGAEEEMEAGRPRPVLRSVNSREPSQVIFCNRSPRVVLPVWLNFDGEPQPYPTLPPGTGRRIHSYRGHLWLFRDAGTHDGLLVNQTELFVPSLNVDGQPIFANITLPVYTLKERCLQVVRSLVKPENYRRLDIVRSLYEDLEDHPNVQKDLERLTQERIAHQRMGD
T1 sequence (Q15370 whole entry partner, one chain of several): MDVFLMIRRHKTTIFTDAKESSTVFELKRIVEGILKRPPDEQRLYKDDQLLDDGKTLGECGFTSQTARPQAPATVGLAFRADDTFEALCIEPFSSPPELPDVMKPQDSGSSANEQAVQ
T1 sequence (Q15369 whole entry partner, one chain of several): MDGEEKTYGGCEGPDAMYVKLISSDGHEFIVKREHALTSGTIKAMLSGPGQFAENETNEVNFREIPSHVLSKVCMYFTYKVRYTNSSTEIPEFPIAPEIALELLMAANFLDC

SMILES | enrichment of endogenous p38δ on GST-VBC bait (endogenous p38δ) | ubiquitination of immunoprecipitated FLAG-p38δ (FLAG-p38δ)
COc1cc2c(Oc3ccc(NC(=O)C4(C(=O)Nc5ccc(F)cc5)CC4)cc3F)ccnc2cc1OCCCCOCCCCOCC(=O)N[C@H](C(=O)N1C[C@H](O)C[C@H]1C(=O)NCc1ccc(-c2scnc2C)cc1)C(C)(C)C [SJFα] | stable ternary complex formation was greatly reduced | far less abundant
COc1cc2c(Oc3ccc(NC(=O)C4(C(=O)Nc5ccc(F)cc5)CC4)cc3F)ccnc2cc1OCCOCCOCCOc1cc(-c2scnc2C)ccc1CNC(=O)[C@@H]1C[C@@H](O)CN1C(=O)[C@H](C(C)C)N1Cc2ccccc2C1=O [SJFδ] | strongly enriches for endogenous p38δ | levels of ubiquitination of immunoprecipitated p38δ greater than control cells
